Earlier results as cited in patent US12575570B2, “Aqueous composition of Epyrifenacil, Mesotrione and Pyroxasulfone” (Valent U.S.A. LLC, priority 2020, dated 2026).

CS(=O)(=O)c1ccc(C(=O)C2C(=O)CCCC2=O)c([N+](=O)[O-])c1 [mesotrione, 2-(4-mesyl-2-nitrobenzoyl)cyclohexane-1,3-dione]
water solubility: 160 ppm
